Usually IC50 stands for the point on the concentration scale where inhibition reaches its midpoint. As usually defined, the Ki is the equilibrium dissociation constant of an inhibitor or competing ligand from its target.

A short description of data set [1]: DRUGMATRIX: Phosphodiesterase PDE4 enzyme inhibition (substrate: [3H]cAMP + cAMP). As to conditions: u-937; Not Active = under 50% inhibition at 10 µM.
For data set [2], the target named is T1, Neuropeptide Y receptor type 2 (Homo sapiens, UniProt P49146). Note: in other assays of this panel Not Active means under 50% inhibition at 10 µM.
T1 sequence (P49146 whole entry): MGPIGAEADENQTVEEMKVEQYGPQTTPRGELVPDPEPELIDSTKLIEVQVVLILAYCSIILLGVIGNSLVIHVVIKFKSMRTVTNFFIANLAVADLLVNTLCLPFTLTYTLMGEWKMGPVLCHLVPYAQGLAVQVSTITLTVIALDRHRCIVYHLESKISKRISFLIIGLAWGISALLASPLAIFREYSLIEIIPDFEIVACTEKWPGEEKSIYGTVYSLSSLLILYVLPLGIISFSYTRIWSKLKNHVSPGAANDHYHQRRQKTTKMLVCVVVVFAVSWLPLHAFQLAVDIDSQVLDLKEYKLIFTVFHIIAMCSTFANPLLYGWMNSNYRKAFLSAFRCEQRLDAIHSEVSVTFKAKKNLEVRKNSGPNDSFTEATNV
The data set is classed as cell membranes, Membrane. As to conditions: kan-ts.

The target of data set [3] is D(3) dopamine receptor (Homo sapiens, UniProt P35462). Briefly: DRUGMATRIX: Dopamine D3 radioligand binding (ligand: [3H] Spiperone). The class given is cell membranes, CHO, Membrane.
Data set [4] deals with Insulin receptor (Rattus norvegicus, UniProt P15127). The class given is cell membranes, Wistar, Liver, Membrane.
Data set [5] concerns the target T2, Adenosine receptor A3 (Homo sapiens, UniProt P0DMS8).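 Note: radioligand binding assay with AB-MECA serving as the labeled ligand; in other assays of this panel Not Active means under 50% inhibition at 10 µM.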
T2 sequence (P0DMS8 whole entry): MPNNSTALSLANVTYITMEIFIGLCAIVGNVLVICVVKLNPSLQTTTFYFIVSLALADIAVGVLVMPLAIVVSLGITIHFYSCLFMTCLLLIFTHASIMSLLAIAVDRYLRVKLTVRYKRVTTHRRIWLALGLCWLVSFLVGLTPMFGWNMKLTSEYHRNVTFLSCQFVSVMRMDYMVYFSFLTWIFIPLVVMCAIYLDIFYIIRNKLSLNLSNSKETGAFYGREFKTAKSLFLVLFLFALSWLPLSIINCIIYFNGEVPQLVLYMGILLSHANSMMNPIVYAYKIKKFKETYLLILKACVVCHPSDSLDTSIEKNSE
The class given is cell membranes, CHO-K1, Membrane.

A short description of data set [6]: DRUGMATRIX: beta-Lactamase enzyme inhibition (substrate: Nitrocefin). Set-up: species or system Bacillus cereus. As to conditions: Not Active = under 50% inhibition at 10 µM.
The target of data set [7] is Matrix metalloproteinase-9 (Homo sapiens, UniProt P14780). The data set is classed as cell-based.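 Note: inhibition of isolated MMP-9 enzyme activity toward a synthetic peptide substrate, from the DrugMatrix protease screening panel; in other assays of this panel Not Active means under 50% inhibition at 10 µM.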
The target of data set [8] is Acetylcholinesterase (Homo sapiens, UniProt P22303). Put plainly: DRUGMATRIX: Acetylcholinesterase enzyme inhibition (substrate: acetylthiocholine). The class given is cell-based, HEK293. As to conditions: hek293; Not Active = under 50% inhibition at 10 µM.
The target in data set [9] is Melanocortin receptor 4 (Homo sapiens, UniProt P32245). The class given is cell membranes, Membrane. As to conditions: hek293. Note: in other assays of this panel Not Active means under 50% inhibition at 10 µM.
Data set [10] deals with Cytochrome P450 3A4 (Homo sapiens, UniProt P08684). As to conditions: bti-tn-5b1-4.
Data set [11] has as its target Cannabinoid receptor 1 (Homo sapiens, UniProt P21554). The data set is classed as cell membranes, Membrane. As to conditions: chem-1. Note: in other assays of this panel Not Active means under 50% inhibition at 10 µM.
For data set [12], the target named is Substance-P receptor (Homo sapiens, UniProt P25103). The data set is classed as cell membranes, CHO, Membrane. As to conditions: cho. Note: in other assays of this panel Not Active means under 50% inhibition at 10 µM.
Data set [13] is described as follows: DRUGMATRIX: ATPase, Na+/K+ enzyme inhibition (substrate: ATP). The data set is classed as tissue-based, Sus scrofa, Heart. As to conditions: Not Active = under 50% inhibition at 10 µM.
A short description of data set [14]: DRUGMATRIX: Calcium Channel Type L, Dihydropyridine radioligand binding (ligand: [3H] Nitrendipine). The data set is classed as cell membranes, Rattus norvegicus, Wistar, Cerebral cortex, Membrane. As to conditions: Not Active = under 50% inhibition at 10 µM.
Data set [15] can be described thus: DRUGMATRIX: Potassium Channel [KATP] radioligand binding (ligand: [3H] Glyburide). The data set is classed as cell membranes, Membrane. As to conditions: hit-t15; Not Active = under 50% inhibition at 10 µM.

Chain of Melanocortin receptor 4 (P32245 whole entry): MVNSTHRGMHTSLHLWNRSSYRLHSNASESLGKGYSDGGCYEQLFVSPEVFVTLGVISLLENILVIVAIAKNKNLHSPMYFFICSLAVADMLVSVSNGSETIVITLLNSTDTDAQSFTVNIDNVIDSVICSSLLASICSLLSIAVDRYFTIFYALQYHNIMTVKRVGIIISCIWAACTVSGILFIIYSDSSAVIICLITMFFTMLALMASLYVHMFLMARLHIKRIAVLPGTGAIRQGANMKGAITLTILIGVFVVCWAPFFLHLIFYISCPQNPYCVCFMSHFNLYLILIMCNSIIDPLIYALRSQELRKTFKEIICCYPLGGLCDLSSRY
Chain of Cannabinoid receptor 1 (P21554 whole entry): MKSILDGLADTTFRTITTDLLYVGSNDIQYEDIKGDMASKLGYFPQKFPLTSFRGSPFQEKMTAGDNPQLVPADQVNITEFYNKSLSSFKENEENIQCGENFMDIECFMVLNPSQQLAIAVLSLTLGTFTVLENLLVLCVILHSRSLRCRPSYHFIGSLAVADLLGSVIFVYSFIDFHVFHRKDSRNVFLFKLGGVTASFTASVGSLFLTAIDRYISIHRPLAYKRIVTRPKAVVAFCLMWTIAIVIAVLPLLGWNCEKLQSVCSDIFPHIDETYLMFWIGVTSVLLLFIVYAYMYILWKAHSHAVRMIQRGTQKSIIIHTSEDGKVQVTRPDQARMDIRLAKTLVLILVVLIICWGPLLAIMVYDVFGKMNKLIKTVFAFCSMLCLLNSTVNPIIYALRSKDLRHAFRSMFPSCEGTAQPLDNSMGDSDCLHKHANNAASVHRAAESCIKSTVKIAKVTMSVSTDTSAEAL
Chain of Substance-P receptor (P25103 whole entry): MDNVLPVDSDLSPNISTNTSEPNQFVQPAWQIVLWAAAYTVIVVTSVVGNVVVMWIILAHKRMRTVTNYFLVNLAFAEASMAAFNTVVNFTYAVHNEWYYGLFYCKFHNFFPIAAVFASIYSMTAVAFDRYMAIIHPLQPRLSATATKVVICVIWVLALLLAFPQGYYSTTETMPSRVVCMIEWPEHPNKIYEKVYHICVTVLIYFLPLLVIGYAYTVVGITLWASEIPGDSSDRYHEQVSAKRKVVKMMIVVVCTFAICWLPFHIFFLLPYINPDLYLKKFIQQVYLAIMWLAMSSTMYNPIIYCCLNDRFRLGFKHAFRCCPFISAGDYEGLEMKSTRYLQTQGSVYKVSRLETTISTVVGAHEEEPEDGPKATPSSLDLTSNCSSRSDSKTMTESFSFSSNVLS
Chain of Matrix metalloproteinase-9 (P14780 whole entry): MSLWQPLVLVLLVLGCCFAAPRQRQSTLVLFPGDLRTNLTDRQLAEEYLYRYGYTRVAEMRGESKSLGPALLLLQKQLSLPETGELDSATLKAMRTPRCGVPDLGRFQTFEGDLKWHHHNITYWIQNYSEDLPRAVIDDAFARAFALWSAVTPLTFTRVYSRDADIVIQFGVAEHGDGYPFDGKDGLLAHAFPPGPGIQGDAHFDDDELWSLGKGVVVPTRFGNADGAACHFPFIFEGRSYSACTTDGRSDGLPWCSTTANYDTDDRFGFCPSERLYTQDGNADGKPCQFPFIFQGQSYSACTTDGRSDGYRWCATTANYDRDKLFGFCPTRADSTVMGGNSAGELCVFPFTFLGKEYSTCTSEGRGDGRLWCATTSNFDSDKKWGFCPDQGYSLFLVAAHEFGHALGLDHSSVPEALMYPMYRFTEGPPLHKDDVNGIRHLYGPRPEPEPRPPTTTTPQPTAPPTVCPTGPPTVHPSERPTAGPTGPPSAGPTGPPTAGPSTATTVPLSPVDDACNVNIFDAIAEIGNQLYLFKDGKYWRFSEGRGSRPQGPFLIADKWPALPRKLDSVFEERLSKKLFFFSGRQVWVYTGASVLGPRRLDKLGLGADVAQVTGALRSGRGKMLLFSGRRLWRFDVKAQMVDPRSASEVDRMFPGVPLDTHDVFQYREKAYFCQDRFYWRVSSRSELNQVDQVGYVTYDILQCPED
Chain of Acetylcholinesterase (P22303 whole entry): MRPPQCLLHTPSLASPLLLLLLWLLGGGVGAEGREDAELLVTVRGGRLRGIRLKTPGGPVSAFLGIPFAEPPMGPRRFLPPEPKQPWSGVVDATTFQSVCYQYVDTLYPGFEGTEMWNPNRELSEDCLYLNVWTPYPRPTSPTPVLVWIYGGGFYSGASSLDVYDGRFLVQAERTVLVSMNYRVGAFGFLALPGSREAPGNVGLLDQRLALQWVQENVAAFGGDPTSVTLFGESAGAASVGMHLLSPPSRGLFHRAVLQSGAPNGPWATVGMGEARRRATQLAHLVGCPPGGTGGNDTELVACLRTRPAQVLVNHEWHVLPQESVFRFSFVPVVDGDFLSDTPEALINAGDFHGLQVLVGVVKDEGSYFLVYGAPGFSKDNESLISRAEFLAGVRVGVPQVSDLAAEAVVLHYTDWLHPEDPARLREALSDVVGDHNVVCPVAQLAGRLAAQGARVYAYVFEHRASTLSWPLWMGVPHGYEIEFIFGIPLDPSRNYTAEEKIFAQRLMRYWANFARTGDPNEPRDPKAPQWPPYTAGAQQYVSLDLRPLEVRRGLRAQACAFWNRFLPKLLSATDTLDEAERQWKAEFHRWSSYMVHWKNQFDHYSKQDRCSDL
Chain of Insulin receptor (P15127 27-759 limits assumed): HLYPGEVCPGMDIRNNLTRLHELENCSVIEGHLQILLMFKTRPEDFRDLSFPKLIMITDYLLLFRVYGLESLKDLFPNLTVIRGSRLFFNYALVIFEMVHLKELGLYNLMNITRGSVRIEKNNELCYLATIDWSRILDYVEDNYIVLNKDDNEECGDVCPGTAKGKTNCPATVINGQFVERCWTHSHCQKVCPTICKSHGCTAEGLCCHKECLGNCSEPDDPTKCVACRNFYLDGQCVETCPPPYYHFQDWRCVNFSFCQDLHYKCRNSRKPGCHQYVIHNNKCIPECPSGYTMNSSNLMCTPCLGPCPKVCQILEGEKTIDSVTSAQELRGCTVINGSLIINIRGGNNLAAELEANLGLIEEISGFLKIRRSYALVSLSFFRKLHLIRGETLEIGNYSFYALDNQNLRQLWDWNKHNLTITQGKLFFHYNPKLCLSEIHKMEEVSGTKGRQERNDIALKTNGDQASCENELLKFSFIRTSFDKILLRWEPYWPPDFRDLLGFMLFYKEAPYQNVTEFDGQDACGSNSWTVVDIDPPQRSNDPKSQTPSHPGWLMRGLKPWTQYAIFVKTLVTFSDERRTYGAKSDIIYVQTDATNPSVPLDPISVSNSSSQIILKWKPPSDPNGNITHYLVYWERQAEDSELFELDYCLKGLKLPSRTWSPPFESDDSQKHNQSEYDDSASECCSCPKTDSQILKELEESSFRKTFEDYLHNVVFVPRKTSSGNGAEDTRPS
Chain of Insulin receptor (P15127 764-1383 limits assumed): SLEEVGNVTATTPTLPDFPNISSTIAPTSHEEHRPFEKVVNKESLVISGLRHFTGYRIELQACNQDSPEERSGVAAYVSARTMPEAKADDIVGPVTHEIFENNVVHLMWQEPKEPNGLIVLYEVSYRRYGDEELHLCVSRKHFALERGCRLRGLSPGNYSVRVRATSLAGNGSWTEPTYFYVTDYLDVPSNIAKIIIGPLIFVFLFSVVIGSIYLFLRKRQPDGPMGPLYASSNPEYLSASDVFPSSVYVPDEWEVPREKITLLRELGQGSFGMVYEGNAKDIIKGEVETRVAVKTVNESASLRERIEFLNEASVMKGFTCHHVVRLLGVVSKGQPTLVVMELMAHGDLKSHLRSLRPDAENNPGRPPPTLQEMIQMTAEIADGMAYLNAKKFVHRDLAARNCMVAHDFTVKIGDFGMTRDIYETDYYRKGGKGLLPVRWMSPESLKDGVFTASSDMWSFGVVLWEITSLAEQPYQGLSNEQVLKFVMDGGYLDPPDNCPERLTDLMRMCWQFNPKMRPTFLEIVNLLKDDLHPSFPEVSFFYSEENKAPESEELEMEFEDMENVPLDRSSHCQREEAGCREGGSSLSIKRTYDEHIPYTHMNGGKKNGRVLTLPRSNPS
Chain of Cytochrome P450 3A4 (P08684 whole entry): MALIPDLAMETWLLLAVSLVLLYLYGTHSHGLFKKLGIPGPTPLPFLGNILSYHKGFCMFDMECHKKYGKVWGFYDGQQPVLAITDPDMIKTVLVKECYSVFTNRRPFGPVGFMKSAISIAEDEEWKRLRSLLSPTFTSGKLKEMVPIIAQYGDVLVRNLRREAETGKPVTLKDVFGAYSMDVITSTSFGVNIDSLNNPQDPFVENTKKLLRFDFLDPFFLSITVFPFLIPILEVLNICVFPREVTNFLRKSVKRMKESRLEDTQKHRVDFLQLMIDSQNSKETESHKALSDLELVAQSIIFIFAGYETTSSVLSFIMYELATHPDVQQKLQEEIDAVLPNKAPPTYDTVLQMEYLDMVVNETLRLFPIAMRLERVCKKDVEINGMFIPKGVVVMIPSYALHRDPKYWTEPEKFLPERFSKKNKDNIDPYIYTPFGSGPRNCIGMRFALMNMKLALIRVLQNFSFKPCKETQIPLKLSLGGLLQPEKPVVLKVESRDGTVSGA
Chain of D(3) dopamine receptor (P35462 whole entry): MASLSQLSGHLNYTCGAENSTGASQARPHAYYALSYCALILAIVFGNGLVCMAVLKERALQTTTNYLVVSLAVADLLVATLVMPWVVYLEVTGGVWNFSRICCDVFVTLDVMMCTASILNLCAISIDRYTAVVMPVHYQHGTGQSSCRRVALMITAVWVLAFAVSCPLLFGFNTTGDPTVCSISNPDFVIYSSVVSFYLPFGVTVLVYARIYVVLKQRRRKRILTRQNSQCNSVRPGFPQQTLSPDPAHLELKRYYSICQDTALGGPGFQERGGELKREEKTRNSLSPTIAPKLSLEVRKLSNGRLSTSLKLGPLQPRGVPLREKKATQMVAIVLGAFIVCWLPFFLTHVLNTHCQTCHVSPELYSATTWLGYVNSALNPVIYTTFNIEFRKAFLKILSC

Take `CC(C)(Oc1ccc(CCNC(=O)c2ccc(Cl)cc2)cc1)C(=O)O` [BEZAFIBRATE]: the IC50 result in data set [1], in data set [2], in [3] (cho), in data set [4], in data set [5] (cho-k1) and in data set [6] was “Not Active” in each case. The IC50 result in data set [7], in data set [8], in [9], in [10], in data set [11] and in [12] was “Not Active” in each case. For the same compound, the half-maximal inhibitory concentration (IC50) result in data set [13], in [14] and in data set [15] was “Not Active” each time. The Ki result in data set [1], in [6], in data set [10], in data set [13], in data set [14] and in [15] was “Not Active” in each case.
As for `CCCC[C@@H](CC)COC(=O)c1ccccc1C(=O)OC[C@@H](CC)CCCC` [BIS(2-ETHYLHEXYL)PHTHALATE], the 50% inhibitory concentration (IC50) result in data set [1], in [2], in data set [3] (cho), in [4], in [5] (cho-k1) and in data set [6] was “Not Active” in each case. Further, the IC50 entry in data set [7], in data set [8], in data set [9], in [10], in data set [11] and in data set [12] was “Not Active” in each case. Also, the IC50 result in data set [13], in data set [14] and in [15] was “Not Active” throughout. The Ki result in data set [1], in data set [6], in [10], in data set [13], in data set [14] and in data set [15] was “Not Active” throughout.
For the compound `Oc1c(Cl)cc(Cl)cc1Sc1cc(Cl)cc(Cl)c1O` [BITHIONOL], the IC50 entry in [1] is “Not Active”; in [2] it was “Not Active”; in data set [3] (read-out: IC50), 4220 nM; in data set [4], “Not Active”; in [5] (read-out: IC50), 829 nM; in [6], “Not Active”. Moreover, the IC50 result in data set [7], in [8], in [9], in [10], in [11] and in data set [12] was “Not Active” in each case. Moreover, the IC50 in data set [13] (read-out: IC50) was 5020 nM; in [14], “Not Active”; in data set [15] it was “Not Active”. The Ki entry is “Not Active” in data set [1]; 1430 nM in data set [3] (read-out: Ki); 468 nM in data set [5] (read-out: Ki); “Not Active” in data set [6]; “Not Active” in [10]; “Not Active” in data set [14]. In addition, in [15], the Ki result is “Not Active”.
Regarding `Brc1ccccc1` [BROMOBENZENE], the concentration for half-maximal inhibition (IC50) entry in data set [1], in [2], in [3] (cho), in data set [4], in [5] (cho-k1) and in data set [6] was “Not Active” each time. Besides, the IC50 entry in data set [7], in data set [8], in [9], in data set [10], in [11] and in data set [12] was “Not Active” in each case. In addition, the IC50 entry in data set [13], in [14] and in data set [15] was “Not Active” throughout. Also, the Ki result in [1], in data set [6], in [10], in data set [13], in data set [14] and in data set [15] was “Not Active” in each case.
On to `CC[C@@]1(O)C(=O)OCc2c1cc1n(c2=O)Cc2cc3ccccc3nc2-1` [CAMPTOTHECIN], for which the IC50 result in data set [1], in [2], in data set [3] (cho), in data set [4], in [5] (cho-k1) and in data set [6] was “Not Active” each time. The IC50 entry in data set [7], in data set [8], in data set [9], in [10], in data set [11] and in data set [12] was “Not Active” throughout. Besides, the IC50 result in data set [13], in [14] and in [15] was “Not Active” each time. In addition, the Ki entry in [1], in [6], in data set [10], in data set [13], in [14] and in data set [15] was “Not Active” in each case.
Turning to `COCc1c(C(C)C)nc(C(C)C)c(/C=C/[C@@H](O)C[C@@H](O)CC(=O)O)c1-c1ccc(F)cc1` [CERIVASTATIN], the 50% inhibitory concentration (IC50) entry in [1], in data set [2], in [3] (cho), in data set [4], in data set [5] (cho-k1) and in data set [6] was “Not Active” in each case. Further, the IC50 entry in [7], in data set [8], in data set [9], in data set [10], in data set [11] and in data set [12] was “Not Active” in each case. Besides, the IC50 entry in data set [13], in data set [14] and in [15] was “Not Active” each time. The Ki result in data set [1], in data set [6], in data set [10], in [13], in data set [14] and in data set [15] was “Not Active” each time.
As for `CC(=O)O[C@]1(C(C)=O)CC[C@H]2[C@@H]3C=C(Cl)C4=CC(=O)CC[C@]4(C)[C@H]3CC[C@@]21C` [CHLORMADINONE ACETATE], the IC50 entry in data set [1], in [2], in data set [3] (cho), in data set [4], in [5] (cho-k1) and in [6] was “Not Active” each time. Besides, the IC50 entry in data set [7], in [8], in [9], in [10], in data set [11] and in [12] was “Not Active” throughout. The IC50 is 4570 nM in data set [13] (read-out: IC50), “Not Active” in [14] and “Not Active” in data set [15]. Further, the Ki result in [1], in [6], in [10], in data set [14] and in data set [15] was “Not Active” in each case.

Source of the values: ChEMBL document CHEMBL1909046, “DrugMatrix in vitro pharmacology data”.
